Results as given in patent US20150173369A1, “S[…] CONTROL AND IMPROVED CROP TOLERANCE FROM COMBINATIONS OF 2,4-D-CHOLINE, GLYPHOSATE, AND G[…] 2,4-D-, GLYPHOSATE- AND GLUFOSINATE-TOLERANT SOYBEANS, CORN, COTTON AND OTHER CROP AREAS” (Dow AgroSciences LLC, priority 2013, published 2015).
“And” between values parts separate entries of the source, which are not always exact repeats. Equal values may be shown once.

Assays:
AAD12 Soybean (GLXMA) = assay: Field trials, crop tolerance (% visual crop injury); type: in vivo, Glycine max L.
Protocol: (§1) Field trials were conducted under agricultural field conditions in multiple states in the United States, including but not limited to Arkansas, Iowa, Illinois, Indiana, Kansas, Minnesota, Mississippi, Missouri, New York, Tennessee and Wisconsin. Trials were established as RCB (randomized complete block) design, with 3-4 replicates per treatment, and plot sizes varying from 5-10 feet (ft) wide by 12-30 ft long. Treatments were applied with small plot backpack sprayers, using pressurized carbon dioxide (CO2) as propellant. Pressure varied from 17-52 pounds per square inch (psi), with spray tips typically of a Flat Fan type applying water diluent at 15 gallons per acre (GPA). Boom sizes varied from 5-11 ft in width. Treatments were applied to soybean, cotton, corn or fallow crop land. Weed sizes varied, but all treatments were applied as post-emergence treatments to weeds from 2 leaf to 2 tiller growth stages varying from 3 to 17 inches in height. The weed spectrum included, but was not limited to, Amaranthus palmeri S. Wats. (Palmer amaranth, AMAPA), Ambrosia trifida L. (giant ragweed, AMBTR), Conyza canadensis (L.) Cronq. (horseweed, ERICA) and Salsola tragus L. (Russian thistle, SASKR).
(§2) Glyphosate-, 2,4-D- and glufosinate-tolerant soybeans, corn or cotton comprising genes for tolerance for each herbicide as described above were used in all trials either as a breeding stack of one to three herbicide-tolerant events or as a molecular stack where all three herbicide tolerance traits were transformed into a single event.
(§3) The 2,4-D-choline salt plus glyphosate premix formulation was a 400 g ae/L SL containing 195 g ae/L 2,4-D-choline salt and 205 g ae/L glyphosate-dimethylammonium (DMA) salt. […] All treatments were mixed in water at appropriate formulated product rates to achieve the desired rates as shown based on a unit area of application (hectare). Treatments were rated at 1 to 28 days after application (DAA) as compared to the untreated control plants. The trial sites had naturally occurring populations of weeds. The treated plots and control plots were rated blind at various intervals after application.
Colby's equation was used to determine the herbicidal effects expected from the mixtures (Colby, S. R. Calculation of the synergistic and antagonistic response of herbicide combinations. Weeds 1967, 15, 20-22). A t-test (alpha=0.05) between Colby predictions and observed combinations was used to test for significant differences indicating synergy or antagonism using replicate data. […] The following equation was used to calculate the expected activity of mixtures containing three active ingredients, A. B, and C: […]

[1] = system: Salsola tragus L. (Russian thistle, SASKR); assay: Field trials, post-emergence weed control (% visual control); type: in vivo; conditions: 542 g ae/ha alone
Protocol: as §1, §2, §3
(§4) Colby's equation was used to determine the herbicidal effects expected from the mixtures (Colby, S. R. Calculation of the synergistic and antagonistic response of herbicide combinations. Weeds 1967, 15, 20-22). A t-test (alpha=0.05) between Colby predictions and observed combinations was used to test for significant differences indicating synergy or antagonism using replicate data. The results presented in the Tables were significant according to the described criteria. The following equation was used to calculate the expected activity of mixtures containing three active ingredients, A. B, and C: […]

[2] = system: Conyza canadensis (L.) Cronq. (horseweed, ERICA); assay: as above; type: in vivo; conditions: ERICA 14DAA; 542 g ae/ha alone
Protocol: as §1, §2, §3, §4

[3] = system: Amaranthus palmeri S. Wats. (Palmer amaranth, AMAPA); assay: as above; type: in vivo; conditions: 542 g ae/ha alone
Protocol: as §1, §2, §3, §4

[4] = system: Ambrosia trifida L. (giant ragweed, AMBTR); assay: as above; type: in vivo; conditions: 542 g ae/ha alone
Protocol: as §1, §2, §3, §4

CP(=O)(O)CCC(N)C(=O)O (centres unmarked) [Glufosinate-Ammonium, ammonium (3-amino-3-carboxypropyl)(methyl)phosphinate]
Mean % visual crop injury (AAD12 Soybean (GLXMA); GLXMA 1DAA, 542 g ae/ha alone): 12.5% | Mean % visual crop injury (AAD12 Soybean (GLXMA); GLXMA 1DAA, 822 g ae/ha alone): 16.3% | Mean % visual crop injury (AAD12 Soybean (GLXMA); GLXMA 1DAA, 1084 g ae/ha alone): 20.0% | Mean % visual crop injury (AAD12 Soybean (GLXMA); GLXMA 2DAA, 822 g ae/ha alone): 9.5% and 12.3% and 11.3% and 8.3% and 7.5% and 7.3% and 13.8% | Mean % visual crop injury (AAD12 Soybean (GLXMA); GLXMA 2DAA, 1084 g ae/ha alone): 13.0% and 15.5% and 11.3% and 11.8% and 8.5% and 7.8% and 7.5% | Mean % visual crop injury (AAD12 Soybean (GLXMA); GLXMA 4DAA, 542 g ae/ha alone): 3.8% and 2.8% and 6.3% | Mean % visual crop injury (AAD12 Soybean (GLXMA); GLXMA 5DAA, 542 g ae/ha alone): 4.0% | Mean % visual crop injury (AAD12 Soybean (GLXMA); GLXMA 5DAA, 1084 g ae/ha alone): 7.8% | Mean % visual crop injury (AAD12 Soybean (GLXMA); GLXMA 6DAA, 823 g ae/ha alone): 33.3% | Mean % visual crop injury (AAD12 Soybean (GLXMA); GLXMA 7DAA, 542 g ae/ha alone): 3.3% | Mean % visual crop injury (AAD12 Soybean (GLXMA); GLXMA 8DAA, 542 g ae/ha alone): 2.8% | Mean % visual crop injury (AAD12 Soybean (GLXMA); GLXMA 9DAA, 822 g ae/ha alone): 5.5% | Mean % visual crop injury (AAD12 Soybean (GLXMA); GLXMA 9DAA, 1084 g ae/ha alone): 6.0% | Mean % visual crop injury (AAD12 Soybean (GLXMA); GLXMA 10DAA, 1084 g ae/ha alone): 8.5% and 10.0% | Mean % visual crop injury (AAD12 Soybean (GLXMA); GLXMA 13DAA, 823 g ae/ha alone): 10.7% | Mean % visual crop injury (AAD12 Soybean (GLXMA); GLXMA 13DAA, 1084 g ae/ha alone): 8.5% | Mean % visual crop injury (AAD12 Soybean (GLXMA); GLXMA 14DAA, 542 g ae/ha alone): 5.8% and 12.5% | Mean % visual crop injury (AAD12 Soybean (GLXMA); GLXMA 15DAA, 542 g ae/ha alone): 4.5% | Mean % visual crop injury (AAD12 Soybean (GLXMA); GLXMA 15DAA, 822 g ae/ha alone): 2.3% and 5.0% | Mean % visual crop injury (AAD12 Soybean (GLXMA); GLXMA 15DAA, 1084 g ae/ha alone): 5.5% and 8.5% and 2.3% | Mean % visual crop injury (AAD12 Soybean (GLXMA); GLXMA 16DAA, 542 g ae/ha alone): 3.0% | Mean % visual crop injury (AAD12 Soybean (GLXMA); GLXMA 16DAA, 822 g ae/ha alone): 4.0% | Mean % visual crop injury (AAD12 Soybean (GLXMA); GLXMA 16DAA, 1084 g ae/ha alone): 5.0% and 5.5% | Mean % visual crop injury (AAD12 Soybean (GLXMA); GLXMA 21DAA, 542 g ae/ha alone): 4.0% | Mean % visual crop injury (AAD12 Soybean (GLXMA); GLXMA 21DAA, 822 g ae/ha alone): 5.0% | Mean % visual crop injury (AAD12 Soybean (GLXMA); GLXMA 21DAA, 1084 g ae/ha alone): 6.0% | Mean % visual crop injury (AAD12 Soybean (GLXMA); table title: % Visual Necrosis, GLXMA 2DAA, 1084 g ae/ha alone): 25.0% | Mean % visual crop injury (AAD12 Soybean (GLXMA); table title: % Visual Necrosis, GLXMA 3DAA, 542 g ae/ha alone): 0.0% | Mean % visual crop injury (AAD12 Soybean (GLXMA); table title: % Visual Necrosis, GLXMA 3DAA, 822 g ae/ha alone): 0.8% | Mean % visual crop injury (AAD12 Soybean (GLXMA); table title: % Visual Necrosis, GLXMA 3DAA, 1084 g ae/ha alone): 3.0% and 8.5% and 1.5% and 1.3% | Mean % visual crop injury (AAD12 Soybean (GLXMA); table title: % Visual Necrosis, GLXMA 5DAA, 542 g ae/ha alone): 2.8% | Mean % visual crop injury (AAD12 Soybean (GLXMA); table title: % Visual Necrosis, GLXMA 7DAA, 542 g ae/ha alone): 0.5% and 0.3% | Mean % visual crop injury (AAD12 Soybean (GLXMA); table title: % Visual Necrosis, GLXMA 7DAA, 822 g ae/ha alone): 0.8% and 0.0% and 10.0% and 1.0% and 1.3% | Mean % visual crop injury (AAD12 Soybean (GLXMA); table title: % Visual Necrosis, GLXMA 7DAA, 1084 g ae/ha alone): 3.3% and 1.3% and 10.0% and 2.0% and 2.3% | Mean % visual crop injury (AAD12 Soybean (GLXMA); table title: % Visual Necrosis, GLXMA 8DAA, 822 g ae/ha alone): 7.5% | Mean % visual crop injury (AAD12 Soybean (GLXMA); table title: % Visual Necrosis, GLXMA 8DAA, 1084 g ae/ha alone): 10.0% and 12.5% and 6.5% | Mean % visual crop injury (AAD12 Soybean (GLXMA); table title: % Visual Necrosis, GLXMA 9DAA, 822 g ae/ha alone): 6.0% | Mean % visual crop injury (AAD12 Soybean (GLXMA); table title: % Visual Necrosis, GLXMA 10DAA, 1084 g ae/ha alone): 2.3% | Mean % visual crop injury (AAD12 Soybean (GLXMA); table title: % Visual Necrosis, GLXMA 14DAA, 822 g ae/ha alone): 0.0% and 1.0% | Mean % visual crop injury (AAD12 Soybean (GLXMA); table title: % Visual Necrosis, GLXMA 14DAA, 1084 g ae/ha alone): 5.0% and 2.0% | Mean % visual crop injury (AAD12 Soybean (GLXMA); table title: % Visual Necrosis, GLXMA 16DAA, 542 g ae/ha alone): 3.0% | Mean % visual crop injury (AAD12 Soybean (GLXMA); table title: % Visual Necrosis, GLXMA 16DAA, 822 g ae/ha alone): 5.0% | Mean % visual crop injury (AAD12 Soybean (GLXMA); table title: % Visual Necrosis, GLXMA 16DAA, 1084 g ae/ha alone): 1.8% | Mean % Weed Control ([1]; SASKR 21DAA): 13.8% | Mean % Weed Control ([1]; SASKR 28DAA): 15% | Mean % Weed Control [2]: 76.8% | Mean % Weed Control ([3]; AMAPA 7DAA): 67.5% | Mean % Weed Control ([3]; AMAPA 8DAA): 32.5% | Mean % Weed Control ([3]; AMAPA 11DAA): 33.8% | Mean % Weed Control ([3]; AMAPA 13DAA): 31.3% | Mean % Weed Control ([3]; AMAPA 14DAA): 10.0% | Mean % Weed Control ([3]; AMAPA 16DAA): 36.7% | Mean % Weed Control ([3]; AMAPA 21DAA): 38.8% | Mean % Weed Control ([3]; AMAPA 23DAA): 21.7% | Mean % Weed Control ([4]; AMBTR 8DAA): 56.7% | Mean % Weed Control ([4]; AMBTR 21DAA): 36.7%
